In ChEMBL document CHEMBL1125519, “Thieno[2,3-b]furan-2-sulfonamides as topical carbonic anhydrase inhibitors” (J Med Chem, 1992):
Converted amounts (≈) assume the structure as drawn.

Experiments:
physchem [1] = conditions: water
Description: Solubility was evaluated in water at 25 degree Centigrade

Carbonic anhydrase 2 [2] = target: T1, Carbonic anhydrase 2 (Homo sapiens, UniProt P00918)
Description: Inhibition of human erythrocyte carbonic anhydrase II

Bos taurus [3] = species on record: Bos taurus
physchem [4] = conditions: 30% ethanol
physchem [5] = conditions: water; remark: listed apart in the source
Carbonic anhydrase 2 [6] = target: T1, Carbonic anhydrase 2; remark: listed apart in the source
Description: Compound was evaluated for the inhibition of dansylamide at human carbonic anhydrase II

Bos taurus [7] = species on record: Bos taurus; assay: Percentage binding to bovine iris and ciliary body; assay type: functional
[8] = pKa in water; assay type: physicochemical
[9] = Solubility was evaluated at pH 7.4 buffer at 25 degree Centigrade; assay type: physicochemical
Bos taurus [10] = species on record: Bos taurus; assay: Percentage binding of bovine ocular pigment; assay type: functional, Eye
Oryctolagus cuniculus = species on record: Oryctolagus cuniculus; assay: Compound was evaluated for the lowering of the intraocular pressure (IOP) (2%, 3 drops) in ocular normotensive pigmented rabbits; assay type: functional, Eye

Row | solubility (physchem [1]) [mg/mL] | IC50 (Carbonic anhydrase 2 [2]) [nM] | pKa (physchem [4]) | pKa (physchem [5]) | Ki (Carbonic anhydrase 2 [6]) [nM] | pKa [8] | Structure (SMILES) | Pigment binding (Bos taurus [3]) [%] | Pigment binding (Bos taurus [7]) [%] | solubility [9] [mg/mL] | Binding (Bos taurus [10]) [%] | IOP lowering (Oryctolagus cuniculus) [mmHg]
1 | > 34 | 12 | 9 | 7.25 |  |  | COCCCNCc1cc2cc(S(N)(=O)=O)oc2s1 | 78 |  |  |  | 
2 |  | 6.49 | 8.85 | 5.55 | 3.6 |  | COCCOCCN(CCOC)Cc1cc2cc(S(N)(=O)=O)oc2s1 | 21 |  |  |  | 
3 | > 27 | 11 | 9.05 |  |  | 7 | COCCNCc1cc2cc(S(N)(=O)=O)oc2s1 |  | 73 | > 27 |  | 
4 | 15.3 (≈ 53.1 mM) | 6 | 9.1 | 7.55 | 7.4 |  | CC(C)CNCc1cc2cc(S(N)(=O)=O)oc2s1 |  | 73 |  |  | 
5 | > 22.5 | 8 | 9.4 | 7.85 |  |  | CCCNCc1cc2cc(S(N)(=O)=O)oc2s1 |  | 68 |  |  | 
6 | > 32 | 12 | 9 | 6.55 | 3.4 |  | NS(=O)(=O)c1cc2cc(CNCCF)sc2o1 | 60 |  |  |  | 
7 | > 51 | 9 | 9.25 | 7.85 | 32.3 |  | CNCc1cc2cc(S(N)(=O)=O)oc2s1 |  | 77 |  |  | 
8 | > 47 | 11 | 9.16 | 7.65 |  |  | NS(=O)(=O)c1cc2cc(CNCCCCO)sc2o1 |  |  |  |  | 
9 | 40.8 (≈ 134 mM) | 8 | 8.9 |  |  | 6.85 | CCOCCNCc1cc2cc(S(N)(=O)=O)oc2s1 |  | 75 | 19.7 (≈ 64.7 mM) |  | 

Row | Structure (SMILES) | solubility (physchem [1]) [mg/mL] | IC50 (Carbonic anhydrase 2 [2]) [nM] | pKa (physchem [4]) | pKa (physchem [5]) | Ki (Carbonic anhydrase 2 [6]) [nM] | pKa [8] | Pigment binding (Bos taurus [3]) [%] | Pigment binding (Bos taurus [7]) [%] | solubility [9] [mg/mL] | Binding (Bos taurus [10]) [%] | IOP lowering (Oryctolagus cuniculus) [mmHg]
10 | COCCN(CCOC)Cc1cc2cc(S(N)(=O)=O)oc2s1 | > 30 | 5.1 | 8.95 | 5.57 | 2.6 |  |  | 27 |  | 26.9 | 3.9
11 | NS(=O)(=O)c1cc2cc(CN3CCOCC3)sc2o1 | > 4.7 | 5.6 | 9.2 |  | 1.24 | 5.32 |  | 25 | 0.97 (≈ 3.21 mM) | 24.8 | 2.5
12 | NS(=O)(=O)c1cc2cc(CNCc3ccccn3)sc2o1 | 20.4 (≈ 63.1 mM) | 8.2 | 9.08 | 7.02 | 8.2 |  | 69 |  | 16.9 (≈ 52.3 mM) |  | 
